Experiments:
poly(rA) [1] = assay: Tm (UV melting) measurement of hybrid with poly(rA); type: binding
Method: (§1) FIG. 1 is a melting point curve for compound (3a) and poly (rA), (sigmoid curve with inflection at 53° C.) poly (rU) (rising straight line plot) and poly (dA) (falling straight line plot) Conditions: 10 mM sodium phosphate buffer pH 7.0; 150 mM NaCl; 1.0 μM (3a); ratio of T:A=1:1, 20% hypochromicity.
(§2) Poly(rA) (Mr˜7×10^6) and poly(rU) (Mr<9×10^5) was obtained from Fluka AG. Poly(dA) (Mr˜9.19×10^5) was obtained from Amersham Pharmacia Biotech. Poly(rI) was obtained from Sigma. The oligonucleotide, (dA)10 and fluorescent labelled (dA)10 was obtained in deprotected and hplc-purified form. All nucleic acids and oligonucleotides were used as received without further treatment.
(§3) The concentration of oligonucleotide, nucleic acid and cPNA solutions was determined from the absorbance at 260 nm (OD260). […]
(§4) Tm experiments were performed on a CARY 100 UV Spectrophotometer (Varian Ltd.) equipped with a thermal melt system. The sample for Tm measurement was prepared by mixing calculated amounts of stock oligonucleotide and cPNA solutions together to give final concentration of nucleotides and sodium phosphate buffer (pH 7.0) and the final volumes were adjusted to 3.0 mL by addition of deionized water. […] The OD260 was recorded in steps from 20-95° C. […] The results were normalized by dividing the absorbance at each temperature by the initial absorbance. […]

poly(rU) = assay: Tm (UV melting) control experiment with poly(rU); type: binding; details: conditions as FIG. 1; dash with footnote b = no melting above 20° C. was observed
Method: as §1, §2, §3, §4

poly(rI) = assay: Tm (UV melting) control experiment with poly(rI); type: binding; details: conditions as FIG. 1; dash with footnote b = no melting above 20° C. was observed
Method: as §1, §2, §3, §4

poly(rA) [2] = assay: Circular dichroism spectroscopy of mixture with poly(rA); type: binding; details: 10 mM sodium phosphate buffer pH 7.0; 200-300 nm
Method: (§5) FIG. 2A is a CD spectra of mixture of poly(rA) and (3a) at different equivalents of T; inset: plot of ε260 versus equivalents of T; FIG. 2B is a CD spectra of mixture of poly(dA) and (3a) at different equivalents of T. Conditions 10 mM sodium phosphate buffer pH 7.0. The concentration of poly (rA) and poly (dA) was 10 μM based on AMP.
(§6) All CD experiments were performed on a JASCO Model J-710/720 spectropolarimeter (Oxford Centre of Molecular Sciences, Oxford). The samples were prepared by mixing calculated amounts of stock oligonucleotide and cPNA solutions together in a 10 mm quartz cell and the final volumes were adjusted to 2.00 mL by addition of deionized water containing an appropriate amount of sodium phosphate buffer pH 7.0 to give the final AMP concentration of 5 mM and phosphate buffer of 10 mM. The spectra were measured at 20° C. from 300 to 200 nm and averaged 4 times then subtracted from a spectrum of pure water under the same conditions.

poly(dA) [3] = assay: Circular dichroism spectroscopy of mixture with poly(dA); type: binding; details: 10 mM sodium phosphate buffer pH 7.0; same conditions as poly(rA)
Method: as §5, §6

[4] = test system: fluorescent labelled (dA)10; assay: Gel electrophoresis with fluorescent labelled (dA)10; type: binding; details: F(dA)10:cPNA 1:1 to 1:10; 20% polyacrylamide gel, 90 mM TBE
Excerpt: The gel electrophoresis apparatus used was a SE6000 Vertical Slab Gel Electrophoresis Unit (Hoefer Scientific Instruments). The gel dimensions were 10×9.5×0.075 cm. The DC power sources was an Electrophoresis power supply model EPS-301 (Amersham Pharmacia Biotech). Acrylamide and N,N-methylene bisacrylamide were obtained as a concentrated aqueous stock solution from Fluka AG. Ammonium persulfate (electrophoresis grade) was obtained from Sigma Chemical Co. Tetramethylethylenediamine (TEMED) (electrophoresis grade) and hemicals necessary for preparing buffers were of the highest purity available from BDH. The stock 0.90 M Tris-Borate-EDTA (TBE) buffer pH 8.3 and the loading buffer (30% glycerol, 0.025% bromophenol blue and 0.025% xylene cyanol FF in 90 mM TBE as well as the 20% polyacrylamide gel in 90 mM TBE was prepared according to the literature (see Essential Molecular Biology, A Practical Approach, Vol 1, Oxford, 1991, pp 89-126).
The sample was prepared by mixing calculated amounts of the fluorescent labelled (dA)10 and PNA concentrated stock solutions in an Eppendorf tube to give the final total amounts of AMP ˜1 nmol and the molar ratio of F(dA)10:cPNA=1:1, 1:2, 1:3, 1:5 and 1:10. […]

[5] = Solubility in aqueous solvents; type: physicochemical
poly(dA) [6] = assay: Tm (UV melting) measurement of hybrid with poly(dA); type: binding; details: conditions as FIG. 1 (10 mM sodium phosphate pH 7.0; 150 mM NaCl; T:A=1:1); dash with footnote b = no melting above 20° C. was observed
Method: as §1, §2, §3, §4

H-[(ψ-CH2)Gly-D-Pro(T)]10-LysNH2 [(3a)]
Tm of hybrid with poly(rA) (poly(rA) [1]; 10 mM sodium phosphate buffer pH 7.0, 150 mM NaCl, 1.0 μM (3a), T:A=1:1): 53 °C
binding to poly(rA) at high salt concentration (poly(rA) [1]; 1.0 M NaCl): no binding
Tm of hybrid with poly(rU) (poly(rU)): no observable melting curve
Tm of hybrid with poly(rI) (poly(rI)): no observable melting curve
change in CD signal on addition to poly(rA) (poly(rA) [2]): strong induced CD signal with a minima at 275 nm
change in CD signal on addition to poly(dA) (poly(dA) [3]): no significant change
binding to (dA)10 in gel electrophoresis [4]: lack of binding
achievable concentration in aqueous solvents [5]: exceeding 5 mg/mL
solubility in aqueous solvents [5]: freely soluble in aqueous solvents

H-[Acg(T)]10-LysNH3 [(1a)]
Tm of hybrid with poly(dA) (poly(dA) [6]): 73 °C

H-[Gly-o-Pro(cis-τ)]10-LysNH, [(2a)]
Tm of hybrid with poly(dA) (poly(dA) [6]): 70 °C
